Results as given in DBAASP.
Converted amounts (≈) assume the structure as drawn. Each block holds one molecule with its values, some of them ahead of it.

Experiments:
Assay in all cases: ≥ marks a high value that may be exact or a test limit, other limits are often not marked, values filed in µg/mL are converted to µM
[1] = test system: Staphylococcus aureus
[2] = test system: Streptococcus mutans UA159
[3] = test system: Streptococcus gordonii Challis DL1
[4] = test system: Streptococcus sanguinis NY101
[5] = test system: Pseudomonas aeruginosa PAK
[6] = test system: Streptococcus mitis ATCC 903
[7] = test system: Staphylococcus aureus ATCC 33592
[8] = test system: Limosilactobacillus fermentum ATCC 9338
[9] = test system: Streptococcus sanguinis ATCC 10556
[10] = test system: Staphylococcus aureus ATCC 700698
[11] = test system: Streptococcus gordonii ATCC 10558
[12] = test system: Staphylococcus aureus ATCC 700699
[13] = test system: Escherichia coli ATCC 9637
[14] = test system: Actinomyces naeslundii ATCC 12104
[15] = test system: Actinomyces viscosus ATCC 15987
[16] = test system: Enterococcus faecalis ATCC 29212
[17] = test system: Lactobacillus acidophilus ATCC 4356
[18] = test system: Candida parapsilosis ATCC 22019
[19] = test system: Staphylococcus aureus ATCC 25923
[20] = test system: Pseudomonas aeruginosa ATCC BAA-427
[21] = test system: Streptococcus sobrinus ATCC 6715
[22] = test system: Candida albicans ATCC 10231
[23] = test system: Sporothrix schenckii
[24] = test system: Cryptococcus neoformans
[25] = test system: Lacticaseibacillus casei ATCC 393
[26] = test system: Bacillus subtilis ATCC 6633
[27] = test system: Klebsiella pneumoniae ATCC 27736
[28] = test system: Staphylococcus aureus ATCC 29213
[29] = test system: Staphylococcus aureus ATCC BAA-44
[30] = test system: Micrococcus luteus ATCC 10240
[31] = test system: Escherichia coli BL21AI
[32] = test system: Escherichia coli DSM 1103
[33] = test system: Bacillus subtilis DSM 347
[34] = test system: Klebsiella pneumoniae DSM 681
[35] = test system: Escherichia coli DC2
[36] = test system: Bacillus subtilis IFO 3336
[37] = test system: Escherichia coli IFO 3301
[38] = test system: Xanthomonas arboricola pv. pruni CFBP 5563
[39] = test system: Pseudomonas syringae pv. actinidiae Psa3700.1.1
[40] = test system: Erwinia amylovora PMV 6076
[41] = test system: Xanthomonas campestris pv. Vesicatoria 2133-2
[42] = test system: Xanthomonas fragariae Xf349-9A
[43] = test system: Pseudomonas syringae pv. syringae EPS 94
[44] = test system: Vibrio parahaemolyticus Vp+1
[45] = test system: Aeromonas salmonicida NCIMB 1102
[46] = test system: Shewanella putrefaciens IAM 1509
[47] = test system: Escherichia coli JCM 1649
[48] = test system: Vibrio anguillarum NCIMB 829
[49] = test system: Salmonella typhimurium
[50] = test system: Bacillus subtilis IAM 1026
[51] = test system: Staphylococcus aureus IAM 1011
[52] = test system: Photobacterium damselae subsp. piscicida Sp 9587

MIC [1]: 5.21 µM (≈ 16 µg/mL) | MIC [2]: 1.3 µM (≈ 4 µg/mL) | MIC [3]: 20.3 µM (≈ 62.5 µg/mL) | MIC [4]: 5.21 µM (≈ 16 µg/mL) | MIC [5]: 20.3 µM (≈ 62.5 µg/mL) | MIC [6]: 10.4 µM (≈ 32 µg/mL)
SMILES: CC[C@H](C)[C@H](NC(=O)[C@H](Cc1ccccc1)NC(=O)[C@H](Cc1cnc[nH]1)NC(=O)[C@H](CCCCN)NC(=O)[C@@H](NC(=O)[C@@H](N)Cc1ccccc1)[C@@H](C)CC)C(=O)N[C@@H](Cc1cnc[nH]1)C(=O)N[C@@H](CCCN=C(N)N)C(=O)N[C@@H](Cc1ccccc1)C(=O)NCC(=O)NCC(=O)NCC(=O)N[C@@H](Cc1ccccc1)C(=O)N[C@@H](CCCCN)C(=O)N[C@@H](CCCCN)C(=O)N[C@@H](Cc1ccccc1)C(=O)N[C@@H](Cc1c[nH]c2ccccc12)C(=O)N[C@@H](CCCCN)C(=O)N[C@@H](Cc1c[nH]c2ccccc12)C(=O)N[C@@H](Cc1ccccc1)C(=O)N[C@@H](CCCN=C(N)N)C(=O)N[C@@H](CCCN=C(N)N)C(=O)N[C@@H](Cc1ccccc1)C(N)=O [FIKHFIHRFGGGFKKFWKWFRRF]

MIC [7]: 1.6 µM (≈ 4.63 µg/mL) | MIC [8]: 1.38 µM (≈ 4 µg/mL) | MIC [9]: 1.96 µM (≈ 5.66 µg/mL) | MIC [10]: 3 µM (≈ 8.68 µg/mL) | MIC [11]: 2.77 µM (≈ 8 µg/mL) | MIC [12]: 1.6 µM (≈ 4.63 µg/mL) | MIC [2]: 1.38 µM (≈ 4 µg/mL) | MIC [13]: 3.4 µM (≈ 9.83 µg/mL) | MIC [14]: 2.77 µM (≈ 8 µg/mL) | MIC [15]: 2.77 µM (≈ 8 µg/mL) | MIC [16]: 3.91 µM (≈ 11.3 µg/mL) | MIC [17]: 1.96 µM (≈ 5.66 µg/mL) | MIC [18]: 3 µM (≈ 8.68 µg/mL) | MIC [19]: 3 µM (≈ 8.68 µg/mL) | MIC [20]: 6.8 µM (≈ 19.7 µg/mL) | MIC [21]: 1.38 µM (≈ 4 µg/mL) | MIC [22]: 6.8 µM (≈ 19.7 µg/mL) | MIC [23]: 13.6 µM (≈ 39.3 µg/mL) | MIC [24]: 3 µM (≈ 8.68 µg/mL) | MIC [25]: 1.38 µM (≈ 4 µg/mL) | MIC [26]: 6 µM (≈ 17.4 µg/mL) | MIC [27]: 3 µM (≈ 8.68 µg/mL) | MIC [28]: 1.6 µM (≈ 4.63 µg/mL) | MIC [29]: 1.6 µM (≈ 4.63 µg/mL)
SMILES: CC[C@H](C)[C@H](NC(=O)[C@H](C)NC(=O)[C@H](CCCCN)NC(=O)CNC(=O)[C@H](C)NC(=O)[C@H](Cc1cnc[nH]1)NC(=O)[C@@H](NC(=O)[C@H](C)NC(=O)CNC(=O)[C@H](CCCCN)NC(=O)[C@@H](NC(=O)[C@H](CC(C)C)NC(=O)[C@H](Cc1c[nH]c2ccccc12)NC(=O)CNC(=O)[C@H](Cc1ccccc1)NC(=O)[C@@H](N)Cc1ccccc1)[C@@H](C)CC)[C@@H](C)CC)C(=O)N[C@@H](Cc1cnc[nH]1)C(=O)NCC(=O)N[C@@H](CC(C)C)C(=O)N[C@H](C(=O)N[C@@H](Cc1cnc[nH]1)C(=O)N[C@@H](CCCN=C(N)N)C(=O)N[C@@H](CCCN=C(N)N)C(=O)N[C@@H](CCCN=C(N)N)C(=O)N[C@@H](Cc1cnc[nH]1)C(=O)O)[C@@H](C)CC [FFGWLIKGAIHAGKAIHGLIHRRRH]

MIC [30]: 0.913 µM (≈ 1.99 µg/mL) | MIC [31]: 1.49 µM (≈ 3.25 µg/mL) | MIC [32]: 1.83 µM (≈ 3.97 µg/mL) | MIC [33]: ≥ 58.5 µM | MIC [34]: 1.83 µM (≈ 3.97 µg/mL) | MIC [35]: 1.83 µM (≈ 3.97 µg/mL)
SMILES: CC[C@H](C)[C@H](NC(=O)[C@H](Cc1ccc(O)cc1)NC(=O)[C@@H](NC(=O)[C@@H]1CCCN1C(=O)[C@H](CCCN=C(N)N)NC(=O)[C@H](CC(N)=O)NC(=O)[C@H](CC(N)=O)NC(=O)CNC(C)=O)C(C)C)C(=O)N1CCC[C@H]1C(=O)N[C@@H](CCCN=C(N)N)C(=O)N1CCC[C@H]1C(=O)N[C@@H](CCCN=C(N)N)C(=O)N1CCC[C@H]1C(=O)N1CCC[C@H]1C(=O)N[C@@H](Cc1cnc[nH]1)C(=O)N1CCC[C@H]1C(=O)N[C@@H](CCCN=C(N)N)C(=O)N[C@@H](CC(C)C)C(N)=O [GNNRPVYIPRPRPPHPRL]

MIC [36]: 8.39 µM (≈ 10 µg/mL) | MIC [37]: 8.39 µM (≈ 10 µg/mL)
SMILES: NC(N)=NCCC[C@H](NC(=O)[C@H](Cc1cnc[nH]1)NC(=O)[C@H](CCCN=C(N)N)NC(=O)[C@H](Cc1cnc[nH]1)NC(=O)[C@H](CCCN=C(N)N)NC(=O)[C@H](Cc1cnc[nH]1)NC(=O)[C@@H](N)CCCN=C(N)N)C(=O)N[C@@H](Cc1cnc[nH]1)C(=O)O [RHRHRHRH]

SMILES: CSCC[C@H](NC(=O)[C@@H](NC(=O)[C@H](Cc1ccc(O)cc1)NC(=O)[C@H](CO)NC(=O)[C@H](CS)NC(=O)[C@@H](N)Cc1ccc(O)cc1)[C@@H](C)O)C(=O)N[C@@H](CCC(=O)O)C(=O)N[C@@H](C)C(N)=O [YCSYTMEA]
MIC [38]: ≥ 50 µM | MIC [39]: ≥ 50 µM | MIC [40]: ≥ 50 µM | MIC [41]: ≥ 50 µM | MIC [42]: ≥ 50 µM | MIC [43]: ≥ 50 µM

MIC [45]: ≥ 32.4 µM | MIC [46]: 4.05 µM (≈ 6.25 µg/mL) | MIC [47]: ≥ 32.4 µM | MIC [48]: 8.09 µM (≈ 12.5 µg/mL) | MIC [49]: ≥ 32.4 µM | MIC [50]: 2.03 µM (≈ 3.13 µg/mL) | MIC [51]: 2.03 µM (≈ 3.13 µg/mL) | MIC [52]: 4.05 µM (≈ 6.25 µg/mL)
SMILES: CC[C@H](C)[C@H](NC(=O)CNC(=O)CNC(=O)[C@@H](NC(=O)[C@@H](N)Cc1ccccc1)[C@@H](C)CC)C(=O)N[C@H](C(=O)N[C@@H](CO)C(=O)N[C@@H](Cc1ccccc1)C(=O)N[C@@H](Cc1ccccc1)C(=O)N[C@@H](CCCCN)C(=O)N[C@@H](CCCN=C(N)N)C(=O)N[C@@H](CC(C)C)C(=O)N[C@@H](Cc1ccccc1)C(=O)O)[C@@H](C)CC [FIGGIISFFKRLF]
MIC [44]: 16.2 µM (≈ 25 µg/mL)
